Test results taken from US12295936B2, “Immunomodulating urea azalides” (Zoetis Services LLC, priority 2020, dated 2025).

These compounds were tested on BRD pathogens, M. haemolytica and P. multocida (assay: MIC screening panel of BRD pathogens (antibacterial / non-antibacterial)). Conditions: read-out: antibacterial / non-antibacterial (MIC for the BRD pathogens).

| SMILES | MIC |
| --- | --- |
| CC[C@H]1OC(=O)[C@H](C)[C@@H](O)[C@H](C)[C@@H](O[C@@H]2O[C@H](C)C[C@H](N(C)C(=O)N(C)c3ccccc3)[C@H]2O)[C@](C)(O)C[C@@H](C)CN[C@H](C)[C@@H](O)[C@]1(C)O [Example A-26, 1-((2S,3R,4S,6R)-2-(((2R,3S,4R,5R,8R,10R,11R,12S,13S,14R)-2-ethyl-3,4,10,13-tetrahydroxy-3,5,8,10,12,14-hexamethyl-15-oxo-1-oxa-6-azacyclopentadecan-11-yl)oxy)-3-hydroxy-6-methyltetrahydro-2H-pyran-4-yl)-1,3-dimethyl-3-phenylurea] | > 64 µg/mL |
| CCCN(C[C@]1(O)[C@H](C)O[C@@H](O[C@H]2[C@H](C)[C@@H](O[C@@H]3O[C@H](C)C[C@H](N(C)C(=O)N(C)c4ccccc4)[C@H]3O)[C@](C)(O)C[C@@H](C)CN[C@H](C)[C@@H](O)[C@](C)(O)[C@@H](CC)OC(=O)[C@@H]2C)C[C@@]1(C)OC)C(=O)N(C)c1ccccc1 [Example H-63, 1-((2S,3R,4S,6R)-2-(((2R,3S,4R,5R,8R,10R,11R,12S,13S,14R)-2-ethyl-3,4,10-trihydroxy-13-(((2R,4R,5S,6S)-5-hydroxy-4-methoxy-4,6-dimethyl-5-((3-methyl-3-phenyl-1-propylureido)methyl)tetrahydro-2H-pyran-2-yl)oxy)-3,5,8,10,12,14-hexamethyl-15-oxo-1-oxa-6-azacyclopentadecan-11-yl)oxy)-3-hydroxy-6-methyltetrahydro-2H-pyran-4-yl)-1,3-dimethyl-3-phenylurea] | > 64 µg/mL |
| CC[C@H]1OC(=O)[C@H](C)[C@@H](O[C@H]2C[C@@](C)(OC)[C@](O)(CCl)[C@H](C)O2)[C@H](C)[C@@H](O[C@@H]2O[C@H](C)C[C@H](N(C)C(=O)Nc3ccccc3)[C@H]2O)[C@](C)(O)C[C@@H](C)CN[C@H](C)[C@@H](O)[C@]1(C)O [Example E-1, 1-((2S,3R,4S,6R)-2-(((2R,3S,4R,5R,8R,10R,11R,12S,13S,14R)-13-(((2R,4R,5S,6S)-5-(chloromethyl)-5-hydroxy-4-methoxy-4,6-dimethyltetrahydro-2H-pyran-2-yl)oxy)-2-ethyl-3,4,10-trihydroxy-3,5,8,10,12,14-hexamethyl-15-oxo-1-oxa-6-azacyclopentadecan-11-yl)oxy)-3-hydroxy-6-methyltetrahydro-2H-pyran-4-yl)-1-methyl-3-phenylurea] | > 64 µg/mL |
| CCCNC[C@]1(O)[C@H](C)O[C@@H](O[C@H]2[C@H](C)[C@@H](O[C@@H]3O[C@H](C)C[C@H](N(C)C(=O)N(c4ccccc4)C4CCOCC4)[C@H]3O)[C@](C)(O)C[C@@H](C)CN[C@H](C)[C@@H](O)[C@](C)(O)[C@@H](CC)OC(=O)[C@@H]2C)C[C@@]1(C)OC [Example H-55, 1-((2S,3R,4S,6R)-2-(((2R,3S,4R,5R,8R,10R,11R,12S,13S,14R)-2-ethyl-3,4,10-trihydroxy-13-(((2R,4R,5S,6S)-5-hydroxy-4-methoxy-4,6-dimethyl-5-((propylamino)methyl)tetrahydro-2H-pyran-2-yl)oxy)-3,5,8,10,12,14-hexamethyl-15-oxo-1-oxa-6-azacyclopentadecan-11-yl)oxy)-3-hydroxy-6-methyltetrahydro-2H-pyran-4-yl)-1-methyl-3-phenyl-3-(tetrahydro-2H-pyran-4-yl)urea] | > 64 µg/mL |
| CC[C@H]1OC(=O)[C@H](C)[C@@H](O)[C@H](C)[C@@H](O[C@@H]2O[C@H](C)C[C@H](N(C)C(=O)Nc3ccccc3Cl)[C@H]2O)[C@](C)(O)C[C@@H](C)CN[C@H](C)[C@@H](O)[C@]1(C)O [Example A-12, 3-(2-chlorophenyl)-1-((2S,3R,4S,6R)-2-(((2R,3S,4R,5R,8R,10R,11R,12S,13S,14R)-2-ethyl-3,4,10,13-tetrahydroxy-3,5,8,10,12,14-hexamethyl-15-oxo-1-oxa-6-azacyclopentadecan-11-yl)oxy)-3-hydroxy-6-methyltetrahydro-2H-pyran-4-yl)-1-methylurea] | > 64 µg/mL |
| CCCNC[C@]1(O)[C@H](C)O[C@@H](O[C@H]2[C@H](C)[C@@H](O[C@@H]3O[C@H](C)C[C@H](N(C)C(=O)Nc4ccccc4F)[C@H]3O)[C@](C)(O)C[C@@H](C)CN[C@H](C)[C@@H](O)[C@](C)(O)[C@@H](CC)OC(=O)[C@@H]2C)C[C@@]1(C)OC [Example H-82, 1-((2S,3R,4S,6R)-2-(((2R,3S,4R,5R,8R,10R,11R,12S,13S,14R)-2-ethyl-3,4,10-trihydroxy-13-(((2R,4R,5S,6S)-5-hydroxy-4-methoxy-4,6-dimethyl-5-((propylamino)methyl)tetrahydro-2H-pyran-2-yl)oxy)-3,5,8,10,12,14-hexamethyl-15-oxo-1-oxa-6-azacyclopentadecan-11-yl)oxy)-3-hydroxy-6-methyltetrahydro-2H-pyran-4-yl)-3-(2-fluorophenyl)-1-methylurea] | > 64 µg/mL |
| CC[C@H]1OC(=O)[C@H](C)[C@@H](O[C@H]2C[C@@](C)(OC)[C@@H](O)[C@H](C)O2)[C@H](C)[C@@H](O[C@@H]2O[C@H](C)C[C@H](N(C)C(=O)NC(C)(C)C)[C@H]2O)[C@](C)(O)C[C@@H](C)CN(C)[C@H](C)[C@@H](O)[C@]1(C)O [Example B-11, 3-(tert-butyl)-1-((2S,3R,4S,6R)-2-(((2R,3S,4R,5R,8R,10R,11R,12S,13S,14R)-2-ethyl-3,4,10-trihydroxy-13-(((2R,4R,5S,6S)-5-hydroxy-4-methoxy-4,6-dimethyltetrahydro-2H-pyran-2-yl)oxy)-3,5,6,8,10,12,14-heptamethyl-15-oxo-1-oxa-6-azacyclopentadecan-11-yl)oxy)-3-hydroxy-6-methyltetrahydro-2H-pyran-4-yl)-1-methylurea] | > 64 µg/mL |
| CC[C@H]1OC(=O)[C@H](C)[C@@H](O[C@H]2C[C@@](C)(OC)[C@](O)(CN3CCN(c4ncccn4)CC3)[C@H](C)O2)[C@H](C)[C@@H](O[C@@H]2O[C@H](C)C[C@H](N(C)C(=O)N(C)c3ccccc3)[C@H]2O)[C@](C)(O)C[C@@H](C)CN[C@H](C)[C@@H](O)[C@]1(C)O [Example J-13, 1-((2S,3R,4S,6R)-2-(((2R,3S,4R,5R,8R,10R,11R,12S,13S,14R)-2-ethyl-3,4,10-trihydroxy-13-(((2R,4R,5S,6S)-5-hydroxy-4-methoxy-4,6-dimethyl-5-((4-(pyrimidin-2-yl)piperazin-1-yl)methyl)tetrahydro-2H-pyran-2-yl)oxy)-3,5,8,10,12,14-hexamethyl-15-oxo-1-oxa-6-azacyclopentadecan-11-yl)oxy)-3-hydroxy-6-methyltetrahydro-2H-pyran-4-yl)-1,3-dimethyl-3-phenylurea] | > 64 µg/mL |
| CC[C@H]1OC(=O)[C@H](C)[C@@H](O[C@H]2C[C@@](C)(OC)[C@](O)(CC#N)[C@H](C)O2)[C@H](C)[C@@H](O[C@@H]2O[C@H](C)C[C@H](N(C)C(=O)N(C)c3ccc(C(F)(F)F)cc3)[C@H]2O)[C@](C)(O)C[C@@H](C)CN[C@H](C)[C@@H](O)[C@]1(C)O [Example G-3, 1-((2S,3R,4S,6R)-2-(((2R,3S,4R,5R,8R,10R,11R,12S,13S,14R)-13-(((2R,4R,5S,6S)-5-(cyanomethyl)-5-hydroxy-4-methoxy-4,6-dimethyltetrahydro-2H-pyran-2-yl)oxy)-2-ethyl-3,4,10-trihydroxy-3,5,8,10,12,14-hexamethyl-15-oxo-1-oxa-6-azacyclopentadecan-11-yl)oxy)-3-hydroxy-6-methyltetrahydro-2H-pyran-4-yl)-1,3-dimethyl-3-(4-(trifluoromethyl)phenyl)urea] | > 64 µg/mL |
| CC[C@H]1OC(=O)[C@H](C)[C@@H](O)[C@H](C)[C@@H](O[C@@H]2O[C@H](C)C[C@H](N(C)C(=O)Nc3cccc(F)c3)[C@H]2O)[C@](C)(O)C[C@@H](C)CN[C@H](C)[C@@H](O)[C@]1(C)O [Example A-20, 1-((2S,3R,4S,6R)-2-(((2R,3S,4R,5R,8R,10R,11R,12S,13S,14R)-2-ethyl-3,4,10,13-tetrahydroxy-3,5,8,10,12,14-hexamethyl-15-oxo-1-oxa-6-azacyclopentadecan-11-yl)oxy)-3-hydroxy-6-methyltetrahydro-2H-pyran-4-yl)-3-(3-fluorophenyl)-1-methylurea] | > 64 µg/mL |
| CCOC[C@]1(O)[C@H](C)O[C@@H](O[C@H]2[C@H](C)[C@@H](O[C@@H]3O[C@H](C)C[C@H](N(C)C(=O)N(C)c4ccc(C(F)(F)F)cc4)[C@H]3O)[C@](C)(O)C[C@@H](C)CN[C@H](C)[C@@H](O)[C@](C)(O)[C@@H](CC)OC(=O)[C@@H]2C)C[C@@]1(C)OC [Example C-3, 1-((2S,3R,4S,6R)-2-(((2R,3S,4R,5R,8R,10R,11R,12S,13S,14R)-13-(((2R,4R,5S,6S)-5-(ethoxymethyl)-5-hydroxy-4-methoxy-4,6-dimethyltetrahydro-2H-pyran-2-yl)oxy)-2-ethyl-3,4,10-trihydroxy-3,5,8,10,12,14-hexamethyl-15-oxo-1-oxa-6-azacyclopentadecan-11-yl)oxy)-3-hydroxy-6-methyltetrahydro-2H-pyran-4-yl)-1,3-dimethyl-3-(4-(trifluoromethyl)phenyl)urea] | > 64 µg/mL |
| CCCNC[C@]1(O)[C@H](C)O[C@@H](O[C@H]2[C@H](C)[C@@H](O[C@@H]3O[C@H](C)C[C@H](N(C)C(=O)NC)[C@H]3O)[C@](C)(O)C[C@@H](C)CN[C@H](C)[C@@H](O)[C@](C)(O)[C@@H](CC)OC(=O)[C@@H]2C)C[C@@]1(C)OC [Example H-92, 1-((2S,3R,4S,6R)-2-(((2R,3S,4R,5R,8R,10R,11R,12S,13S,14R)-2-ethyl-3,4,10-trihydroxy-13-(((2R,4R,5S,6S)-5-hydroxy-4-methoxy-4,6-dimethyl-5-((propylamino)methyl)tetrahydro-2H-pyran-2-yl)oxy)-3,5,8,10,12,14-hexamethyl-15-oxo-1-oxa-6-azacyclopentadecan-11-yl)oxy)-3-hydroxy-6-methyltetrahydro-2H-pyran-4-yl)-1,3-dimethylurea] | > 64 µg/mL |
